Converted amounts (≈) assume the structure as drawn.

Holding throughout (assay type): cell-based
In one assay the test system is Streptococcus pyogenes A. Description: Minimum inhibition concentration (MIC), Table 3. The note with it: Germ: Streptococcus pyogenes A; for MIC: read-out: Minimum inhibition concentration MIC. From the text:
Minimum inhibition concentration MIC in γ/ml
Germ: Streptococcus pyogenes A

The subject of assay [1] is Staphylococcus aureus 285. Description: Minimum inhibition concentration (MIC), Table 1. The note with it: for MIC: Staphylococcus aureus, 285, Germ: Staphylococcus aureus 285, read-out: Minimum inhibition concentration (MIC). From the text:
(§1) Minimum inhibition concentration (MIC) in γ/ml
Germ: Staphylococcus aureus 285

A further assay deals with Streptococcus D. Kind of assay: Minimum inhibition concentration (MIC), Table 4. The settings on record: Germ: Streptococcus D; for MIC: Streptococcus, read-out: Minimum inhibition concentration (MIC).
From the text: as §1

Assay [2] deals with Staphylococcus aureus SG 511. Description: Minimum inhibition concentration (MIC), Table 5. The note with it: for MIC: Staphylococcus aureus, SG511, Germ: Staphylococcus aureus SG 511, read-out: Minimum inhibition concentration (MIC).
From the text: as §1
Germ: Staphylococcus aureus SG 511

Regarding `N=C(N)c1ccc(OCC(=O)NC2C(=O)N3C(C(=O)O)=C(CSc4nnnn4-c4ccccc4)CSC23)cc1` (centres unmarked) [Example 31, 3-[(1-phenyl-1-H-tetrazole-5yl)-thiomethyl]-7-(4-amidinophenoxyacetamido)-Δ3-cephem-4-carboxylic acid], the MIC fell in the range of 0.000391 to 0.0078 µg/mL (≈ 0.00069 to 0.0138 µM) with Streptococcus pyogenes A, 0.156 to 0.391 µg/mL (≈ 0.275 to 0.69 µM) in assay [1], 10 to 50 µg/mL (≈ 17.6 to 88.2 µM) in the assay with Streptococcus D and 0.0196 to 0.0391 µg/mL (≈ 0.0346 to 0.069 µM) in assay [2].
For the compound `CCCCCCNC(=N)c1ccc(OCC(=O)NC2C(=O)N3C(C(=O)O)=C(CSc4nnc(C)o4)CSC23)cc1` (centres unmarked) [Example 32, 3-[(5-methyl-1,3,4-oxadiazole-2-yl)-thiomethyl]-7-[4-(N-n-hexylamidino)-phenoxyacetamido]-Δ 3-cephem-4-carboxylic acid], the MIC in the assay on Streptococcus pyogenes A was 0.000391 to 0.0078 µg/mL (≈ 0.000664 to 0.0132 µM); in assay [1] it was 0.156 to 0.391 µg/mL (≈ 0.265 to 0.664 µM); with Streptococcus D, 10 to 50 µg/mL (≈ 17 to 84.9 µM); in assay [2], 0.0625 to 0.078 µg/mL (≈ 0.106 to 0.132 µM).
For `CCCCCCNC(=N)c1ccc(OCC(=O)NC2C(=O)N3C(C(=O)O)=C(CSc4nnc(C)s4)CSC23)cc1` (centres unmarked) [Example 33, 3-[(5-methyl-1,3,4-thiadiazole-2-yl)-thiomethyl]-7-[4-(N-n-hexylamidion)-phenoxyacetamido]-Δ 3-cephem-4-carboxylic acid], the MIC in the assay on Streptococcus pyogenes A was in the range of 0.000391 to 0.0078 µg/mL (≈ 0.000647 to 0.0129 µM); in assay [1] it was 0.156 to 0.391 µg/mL (≈ 0.258 to 0.647 µM); with Streptococcus D, 0.196 to 6.25 µg/mL (≈ 0.324 to 10.3 µM); in assay [2], 0.0625 to 0.078 µg/mL (≈ 0.103 to 0.129 µM).
With `Cc1nnc(SCC2=C(C(=O)O)N3C(=O)C(NC(=O)COc4ccc(C5=NCCCN5)cc4)C3SC2)s1` (centres unmarked) [Example 34, 3-[(5-methyl-1,3,4-thiadizole-2-yl)-thiomethyl]-7-[4-(1,4,5,6-tetrahydropyromide-2-yl)-phenoxyacetamido]-Δ 3-cephem-4-carboxylic acid], the MIC with Streptococcus pyogenes A fell in the range of 0.008 to 0.0156 µg/mL (≈ 0.0143 to 0.0278 µM); in assay [1], 0.5 to 1.25 µg/mL (≈ 0.892 to 2.23 µM); with Streptococcus D, 0.196 to 6.25 µg/mL (≈ 0.35 to 11.1 µM); in assay [2], 0.0625 to 0.078 µg/mL (≈ 0.111 to 0.139 µM).
As to `Cc1nnc(SCC2=C(C(=O)O)N3C(=O)C(NC(=O)COc4ccc(C(=N)N)cc4)C3SC2)o1` (centres unmarked) [Example 38, 3-[(5-methyl-1,3,4-oxadiazole-2-yl)-thiomethyl]-7-(4-amidinophenoxy-acetamido)-Δ 3-cephem-4-carboxylic acid], the MIC in the assay on Streptococcus pyogenes A was 0.008 to 0.0156 µg/mL (≈ 0.0159 to 0.0309 µM); in assay [1] it was 0.156 to 0.391 µg/mL (≈ 0.309 to 0.775 µM); in the assay with Streptococcus D, 10 to 50 µg/mL (≈ 19.8 to 99.1 µM); in assay [2] it was 0.0625 to 0.078 µg/mL (≈ 0.124 to 0.155 µM).
`CCCCCCNC(=N)c1ccc(OCC(=O)NC2C(=O)N3C(C(=O)O)=C(CSc4nnc(-c5ccccc5)o4)CSC23)cc1` (centres unmarked) [Example 39]: the MIC was in the range of 0.008 to 0.0156 µg/mL (≈ 0.0123 to 0.024 µM) in the assay with Streptococcus pyogenes A, 0.5 to 1.25 µg/mL (≈ 0.768 to 1.92 µM) in assay [1], 10 to 50 µg/mL (≈ 15.4 to 76.8 µM) in the assay on Streptococcus D and 0.0196 to 0.0391 µg/mL (≈ 0.0301 to 0.0601 µM) in assay [2].
Consider `O=C(COc1ccc(C2=NCCCN2)cc1)NC1C(=O)N2C(C(=O)O)=C(CSc3nnc(-c4ccccc4)s3)CSC12` (centres unmarked) [Example 50], for which the MIC with Streptococcus pyogenes A lay in the range of 0.000391 to 0.0078 µg/mL (≈ 0.000628 to 0.0125 µM); in assay [1] it was 0.156 to 0.391 µg/mL (≈ 0.251 to 0.628 µM); in the assay with Streptococcus D it was 0.196 to 6.25 µg/mL (≈ 0.315 to 10 µM); in assay [2], 0.0196 to 0.0391 µg/mL (≈ 0.0315 to 0.0628 µM).
With `O=C(COc1ccc(C2=NCCCN2)cc1)NC1C(=O)N2C(C(=O)O)=C(CSc3nnc(-c4ccccc4)o3)CSC12` (centres unmarked) [Example 51, 3-[(5-phenyl-1,3,4-oxadiazole-2-yl)-thiomethyl]-7-[4-(1,4,5,6-tetrahydropyrimide-2-yl)-phenoxyacetamido]-Δ 3-cephem-4-carboxylic acid], the MIC in the assay with Streptococcus pyogenes A fell in the range of 0.000391 to 0.0078 µg/mL (≈ 0.000644 to 0.0129 µM); in assay [1] it was 0.156 to 0.391 µg/mL (≈ 0.257 to 0.644 µM); with Streptococcus D, 0.196 to 6.25 µg/mL (≈ 0.323 to 10.3 µM); in assay [2], 0.0196 to 0.0391 µg/mL (≈ 0.0323 to 0.0644 µM).
Consider `O=C(Cc1ccc(C2=NCCN2)cc1)NC1C(=O)N2C(C(=O)O)=C(CSc3nnc(-c4ccccc4)s3)CSC12` (centres unmarked) [Example 52, 3-[(5-phenyl-1,3,4-thiadiazole-2-yl)-thiomethyl]-7-[4-(imidazoline-2-yl)-phenylacetamido] -Δ 3-cephem-4-carboxylic acid], for which the MIC in the assay with Streptococcus pyogenes A lay in the range of 0.000391 to 0.0078 µg/mL (≈ 0.00066 to 0.0132 µM); in assay [1] it was 0.156 to 0.391 µg/mL (≈ 0.263 to 0.66 µM); with Streptococcus D it was 0.196 to 6.25 µg/mL (≈ 0.331 to 10.5 µM); in assay [2], 0.0196 to 0.0391 µg/mL (≈ 0.0331 to 0.066 µM).
Take `CCCCc1nnc(SCC2=C(C(=O)O)N3C(=O)C(NC(=O)Cc4ccc(C(=N)N)cc4)C3SC2)o1` (centres unmarked) [Example 54, 3-[(5-n-butyl-1,3,4-oxadiazole-2-yl)-thiomethyl]-7-(4-amidino-phenylacetamido)-Δ 3-cephem-4-carboxylic acid]: the MIC in the assay on Streptococcus pyogenes A lay within 0.000391 to 0.0078 µg/mL (≈ 0.000737 to 0.0147 µM); in assay [1], 0.156 to 0.391 µg/mL (≈ 0.294 to 0.737 µM); with Streptococcus D, 10 to 50 µg/mL (≈ 18.8 to 94.2 µM); in assay [2] it was 0.0196 to 0.0391 µg/mL (≈ 0.0369 to 0.0737 µM).
As for `N=C(N)c1ccc(CC(=O)NC2C(=O)N3C(C(=O)O)=C(CSc4nnc(-c5ccccc5)o4)CSC23)cc1` (centres unmarked) [Example 56, 3-[(5-phenyl-1,3,4-oxadiazole-2-yl)-thiomethyl]-7-(4-amidinophenylacetamido)-Δ 3-cephem-4-carboxylic acid], the MIC with Streptococcus pyogenes A lay within 0.000391 to 0.0078 µg/mL (≈ 0.00071 to 0.0142 µM); in assay [1] it was 0.156 to 0.391 µg/mL (≈ 0.283 to 0.71 µM); in the assay on Streptococcus D, 10 to 50 µg/mL (≈ 18.2 to 90.8 µM); in assay [2], 0.0196 to 0.0391 µg/mL (≈ 0.0356 to 0.071 µM).
For `N=C(N)c1ccc(CC(=O)NC2C(=O)N3C(C(=O)O)=C(CSc4nnc(-c5ccccc5)s4)CSC23)cc1` (centres unmarked) [Example 57, 3-[(5-phenyl-1,3,4-thiadiazole-2-yl)-thiomethyl]-7-(4-amidinophenylacetamido)-Δ3-cephem-4-carboxylic acid], in that order: 0.000391 to 0.0078 µg/mL (≈ 0.00069 to 0.0138 µM), 0.156 to 0.391 µg/mL (≈ 0.275 to 0.69 µM), 10 to 50 µg/mL (≈ 17.6 to 88.2 µM) and 0.0196 to 0.0391 µg/mL (≈ 0.0346 to 0.069 µM).
Turning to `O=C(COc1ccc(C2=NCCCN2)cc1)NC1C(=O)N2C(C(=O)O)=C(CSc3nncs3)CSC12` (centres unmarked) [Example 62], the MIC was 0.008 to 0.0156 µg/mL (≈ 0.0146 to 0.0285 µM) with Streptococcus pyogenes A, 0.5 to 1.25 µg/mL (≈ 0.915 to 2.29 µM) in assay [1], 10 to 50 µg/mL (≈ 18.3 to 91.5 µM) with Streptococcus D and 0.0625 to 0.078 µg/mL (≈ 0.114 to 0.143 µM) in assay [2].
For `N=C(N)c1ccc(OCC(=O)NC2C(=O)N3C(C(=O)O)=C(CSc4nncs4)CSC23)cc1` (centres unmarked) [Example 63, 3-[(1,3,4-thiadiazole-2-yl)-thiomethyl]-7-(4amidinophenoxyacetamido)-Δ 3-cephem-4-carboxylic acid], in that order: 0.008 to 0.0156 µg/mL (≈ 0.0158 to 0.0308 µM), 0.156 to 0.391 µg/mL (≈ 0.308 to 0.772 µM), 10 to 50 µg/mL (≈ 19.7 to 98.7 µM) and 0.0625 to 0.078 µg/mL (≈ 0.123 to 0.154 µM).
On to `Cc1csc(SCC2=C(C(=O)O)N3C(=O)C(NC(=O)COc4ccc(C(=N)N)cc4)C3SC2)n1` (centres unmarked) [Example 64, 3-[(4-methyl-1,3-thiazole-2-yl)-thiomethyl]-7-(4-amidinophenoxyacetamido)-Δ 3-cephem-4-carboxylic acid], for which the “Minimum inhibition concentration (MIC)” value in the assay with Streptococcus pyogenes A fell in the range of 0.000391 to 0.0078 µg/mL; in assay [1] (Germ: Staphylococcus aureus 285) it was 0.5 to 1.25 µg/mL; with Streptococcus D, 10 to 50 µg/mL; in assay [2] (Germ: Staphylococcus aureus SG 511) it was 0.0625 to 0.078 µg/mL.
Turning to `N=C(N)c1ccc(OCC(=O)NC2C(=O)N3C(C(=O)O)=C(CSc4nnc(-c5ccccc5)s4)CSC23)cc1` (centres unmarked) [Example 65, 3-[(5-phenyl-1,3,4-thiadiazole-2-yl)-thiomethyl]-7-(4-amidinophenoxyacetamido)-Δ 3-cephem-4-carboxylic acid], the MIC with Streptococcus pyogenes A was in the range of 0.000391 to 0.0078 µg/mL (≈ 0.000671 to 0.0134 µM); in assay [1], 0.156 to 0.391 µg/mL (≈ 0.268 to 0.671 µM); in the assay on Streptococcus D, 10 to 50 µg/mL (≈ 17.2 to 85.8 µM); in assay [2], 0.0196 to 0.0391 µg/mL (≈ 0.0336 to 0.0671 µM).
As for `CCCc1nnc(SCC2=C(C(=O)O)N3C(=O)C(NC(=O)COc4ccc(C(=N)N)cc4)C3SC2)s1` (centres unmarked) [Example 68, 3-[(5-n-propyl-1,3,4-thiadiazole-2-yl)-thiomethyl]-7-(4-amidinophenoxyacetamido)-Δ 3-cephem-4-carboxylic acid], the MIC lay in the range of 0.008 to 0.0156 µg/mL (≈ 0.0146 to 0.0284 µM) with Streptococcus pyogenes A, 0.5 to 1.25 µg/mL (≈ 0.911 to 2.28 µM) in assay [1], 10 to 50 µg/mL (≈ 18.2 to 91.1 µM) in the assay with Streptococcus D and 0.0625 to 0.078 µg/mL (≈ 0.114 to 0.142 µM) in assay [2].
